Where only a bound is given, the exact number is not on record here.

As a reminder, the EC50 is the concentration giving half of the maximal effect. High values mean a need for much substance, low ones an effect from little substance. For orientation: CC50 means the concentration at which the toxic effect on the cells reaches its halfway point. High values mean better tolerance by the cells, low ones harm at low concentration. A word on the melting point: it is the temperature of the solid-liquid transition.

One series has as its system HSV-1 (strain F, VR-733). Kind of series: CPE inhibition antiviral assay, HSV-1. The series is classed as cell-based, herpes simplex virus (HSV)-1. Conditions: Human alphaherpesvirus 1, 72 h, inhibition of virus-induced cytopathic effect by 50%, MTT readout, 3 days. The procedure: (§1) All the final compounds 3a–f and 4a–g were assayed for their antiviral activity against several herpes viruses such as HSV-1 (strain F, VR-733), HSV-2 (strain MS, VR-540), VZV (Ellen, VR-1367), and HCMV (Davis, VR-807). Cytotoxicity data were measured in HEL299 (CCL-137) cells as described previously. […] Antiviral activity was measured using a standard cytopathic (CPE) inhibition assay as described before. Briefly, Vero cells in stationary phase were infected with the virus at a multiplicity of infection of 2–4 CCID50 (50% cell culture inhibitory dose) per each well of 96-well plates. After 2 h of adsorption at 37 °C, the liquid was aspirated and 100 μL of Dulbeco’s modified eagle’s media (DMEM)/2% fetal bovine serum (FBS) containing a compound was applied to each well in duplicate for each concentration and further incubated for 3 days. Antiviral activity was measured by MTT assay and expressed as the EC50. Cytocidal assay was performed as a control experiment for the antiviral assay. It was carried out simultaneously with the antiviral assay described above using mock instead of virus for infection, and cell viability was measured by MTT assay. The concentration of the compound responsible for 50% reduction of cell growth was calculated and expressed as CC50.
A general note: Protection from cytopathic effect is a common read-out in antiviral testing.
Consider `Nc1nc2c(ncn2COCCO)c(=O)[nH]1` [Compound 1, acyclovir, reference compound], for which the EC50 turned out to be 0.66 µM.

With `Nc1nc(O)c2ncn(COC(CO)CO)c2n1` [Compound 2, ganciclovir, reference compound], the EC50 was determined as 0.9 µM.

`O=c1[nH]cnc2c1ncn2C[Se]CCO` [Compound 3a, 9-((2-Hydroxyethylselanyl)methyl)-1H-purin-6-(9H)-one]: the EC50 was over 100 µM.

For the compound `CNc1ncnc2c1ncn2C[Se]CCO` [Compound 3b, 2-((6-(Methylamino)-9H-purin-9-yl)methylselanyl) ethanol], the EC50 is over 100 µM.

As for `Nc1ncnc2c1ncn2C[Se]CCO` [Compound 3c, 2-((6-Amino-9H-purin-9-yl)methylselanyl)ethanol], the EC50 is over 100 µM.

As for `O=c1[nH]cnc2c1ncn2C[Se]C(CO)CO` [Compound 3d, 9-((1,3-Dihydroxypropan-2-ylselanyl)methyl)-1H purin-6(9H)-one], the EC50 was over 100 µM.

With `CNc1ncnc2c1ncn2C[Se]C(CO)CO` [Compound 3e, 2-((6-(Methylamino)-9H-purin-9-yl)methylselanyl)propane-1,3-diol], the EC50 is over 100 µM.

The next series has as its system HSV-2 (strain MS, VR-540). Nature of the series: CPE inhibition antiviral assay, HSV-2. The series is classed as cell-based. Conditions: Human alphaherpesvirus 2, 72 h, inhibition of virus-induced cytopathic effect by 50%, MTT readout, 3 days. Here is the method:
as §1
`Nc1nc2c(ncn2COCCO)c(=O)[nH]1` [Compound 1, acyclovir, reference compound] came in with an EC50 of 1.02 µM.

`Nc1nc(O)c2ncn(COC(CO)CO)c2n1` [Compound 2, ganciclovir, reference compound] gave an EC50 of 1.4 µM.

`O=c1[nH]cnc2c1ncn2C[Se]CCO` [Compound 3a, 9-((2-Hydroxyethylselanyl)methyl)-1H-purin-6-(9H)-one]: the EC50 was over 100 µM.

Compound `CNc1ncnc2c1ncn2C[Se]CCO` [Compound 3b, 2-((6-(Methylamino)-9H-purin-9-yl)methylselanyl) ethanol] gave an EC50 of over 100 µM.

`Nc1ncnc2c1ncn2C[Se]CCO` [Compound 3c, 2-((6-Amino-9H-purin-9-yl)methylselanyl)ethanol]: the EC50 was over 100 µM.

In the case of `O=c1[nH]cnc2c1ncn2C[Se]C(CO)CO` [Compound 3d, 9-((1,3-Dihydroxypropan-2-ylselanyl)methyl)-1H purin-6(9H)-one], the EC50 is over 100 µM.

For the compound `CNc1ncnc2c1ncn2C[Se]C(CO)CO` [Compound 3e, 2-((6-(Methylamino)-9H-purin-9-yl)methylselanyl)propane-1,3-diol], the EC50 was over 100 µM.

Another series has as its system VZV (Ellen, VR-1367). Kind of series: CPE inhibition antiviral assay, VZV. Conditions: Human alphaherpesvirus 3; inhibition of virus-induced cytopathic effect by 50%; strain Ellen; MTT readout. It counts as cell-based, varicella-zoster virus (VZV). Here is the method: as §1
`Nc1nc2c(ncn2COCCO)c(=O)[nH]1` [Compound 1, acyclovir, reference compound]: it took 6.4 µM to reach a half-maximal effect (EC50).

In turn, `Nc1nc(O)c2ncn(COC(CO)CO)c2n1` [Compound 2, ganciclovir, reference compound] displayed an EC50 of 11.1 µM.

For the compound `O=c1[nH]cnc2c1ncn2C[Se]CCO` [Compound 3a, 9-((2-Hydroxyethylselanyl)methyl)-1H-purin-6-(9H)-one], the EC50 was over 100 µM.

Take `CNc1ncnc2c1ncn2C[Se]CCO` [Compound 3b, 2-((6-(Methylamino)-9H-purin-9-yl)methylselanyl) ethanol]: the EC50 was over 100 µM.

`Nc1ncnc2c1ncn2C[Se]CCO` [Compound 3c, 2-((6-Amino-9H-purin-9-yl)methylselanyl)ethanol] returned an EC50 of over 100 µM.

`O=c1[nH]cnc2c1ncn2C[Se]C(CO)CO` [Compound 3d, 9-((1,3-Dihydroxypropan-2-ylselanyl)methyl)-1H purin-6(9H)-one]: the EC50 is over 100 µM.

The compound `CNc1ncnc2c1ncn2C[Se]C(CO)CO` [Compound 3e, 2-((6-(Methylamino)-9H-purin-9-yl)methylselanyl)propane-1,3-diol] registered an EC50 of over 100 µM.

A further series concerns HCMV (Davis, VR-807). Kind of series: CPE inhibition antiviral assay, HCMV. It counts as cell-based, human cytomegalovirus (HCMV). Conditions: Human betaherpesvirus 5; inhibition of virus-induced cytopathic effect by 50%; strain Davis; MTT readout. Here is the method:
as §1
The compound `Nc1nc2c(ncn2COCCO)c(=O)[nH]1` [Compound 1, acyclovir, reference compound] registered an EC50 of 18.9 µM.

Take `Nc1nc(O)c2ncn(COC(CO)CO)c2n1` [Compound 2, ganciclovir, reference compound]: the EC50 was 2.14 µM.

As to `O=c1[nH]cnc2c1ncn2C[Se]CCO` [Compound 3a, 9-((2-Hydroxyethylselanyl)methyl)-1H-purin-6-(9H)-one], the EC50 is over 100 µM.

In turn, `CNc1ncnc2c1ncn2C[Se]CCO` [Compound 3b, 2-((6-(Methylamino)-9H-purin-9-yl)methylselanyl) ethanol] registered an EC50 of over 100 µM.

For `Nc1ncnc2c1ncn2C[Se]CCO` [Compound 3c, 2-((6-Amino-9H-purin-9-yl)methylselanyl)ethanol], the EC50 is over 100 µM.

For `O=c1[nH]cnc2c1ncn2C[Se]C(CO)CO` [Compound 3d, 9-((1,3-Dihydroxypropan-2-ylselanyl)methyl)-1H purin-6(9H)-one], the EC50 was over 100 µM.

For the compound `CNc1ncnc2c1ncn2C[Se]C(CO)CO` [Compound 3e, 2-((6-(Methylamino)-9H-purin-9-yl)methylselanyl)propane-1,3-diol], the EC50 was over 100 µM.

Test system in a further series: not listed separately
Kind of series: Cytotoxicity (cytocidal) assay, MTT. The series is classed as cell-based. Conditions: human, 50% reduction of cell viability, HEL299 cells, mock infection. The procedure: as §1
For `O=c1[nH]cnc2c1ncn2C[Se]CCO` [Compound 3a, 9-((2-Hydroxyethylselanyl)methyl)-1H-purin-6-(9H)-one], the CC50 at 3 days is over 100 µM.

Compound `CNc1ncnc2c1ncn2C[Se]CCO` [Compound 3b, 2-((6-(Methylamino)-9H-purin-9-yl)methylselanyl) ethanol] showed a CC50 at 3 days of over 100 µM.

The compound `Nc1ncnc2c1ncn2C[Se]CCO` [Compound 3c, 2-((6-Amino-9H-purin-9-yl)methylselanyl)ethanol] showed a CC50 at 3 days of over 100 µM.

With `O=c1[nH]cnc2c1ncn2C[Se]C(CO)CO` [Compound 3d, 9-((1,3-Dihydroxypropan-2-ylselanyl)methyl)-1H purin-6(9H)-one], the CC50 at 3 days is over 100 µM.

Consider `CNc1ncnc2c1ncn2C[Se]C(CO)CO` [Compound 3e, 2-((6-(Methylamino)-9H-purin-9-yl)methylselanyl)propane-1,3-diol], for which the CC50 at 3 days was over 100 µM.

Still in this series, the particulars now being: human, HEL299 (CCL-137) cells, mock-infected, 50% reduction of cell viability, mock infection.
In turn, `Nc1nc(O)c2ncn(COC(CO)CO)c2n1` [Compound 2, ganciclovir, reference compound] yielded a CC50 at 3 days of over 100 µM.

Test system in another series: not given
Experiment: not given
Details: not given
For the compound `O=c1[nH]cnc2c1ncn2C[Se]CCO` [Compound 3a, 9-((2-Hydroxyethylselanyl)methyl)-1H-purin-6-(9H)-one], the melting point lay within 225 to 227 °C.

Compound `CNc1ncnc2c1ncn2C[Se]CCO` [Compound 3b, 2-((6-(Methylamino)-9H-purin-9-yl)methylselanyl) ethanol] came in with a melting point of 171 to 173 °C.

Regarding `Nc1ncnc2c1ncn2C[Se]CCO` [Compound 3c, 2-((6-Amino-9H-purin-9-yl)methylselanyl)ethanol], the melting point was 175 to 177 °C.

As for `CNc1ncnc2c1ncn2C[Se]C(CO)CO` [Compound 3e, 2-((6-(Methylamino)-9H-purin-9-yl)methylselanyl)propane-1,3-diol], the melting point is 180 to 183 °C.

Values taken from publication PMC6152377, “Structure-Activity Relationships of Acyclic Selenopurine Nucleosides as Antiviral Agents” (Molecules : A Journal of Synthetic Chemistry and Natural …, 2017).
